Experimental findings from patent publication US10287267B2, “Isoquinolin-3-yl carboxamides and preparation and use thereof” (Samumed, LLC, priority 2016, dated 2019) are described below.

Experiment [1] relates to α-smooth muscle actin (αSMA) positive LL29 cells. Nature of the experiment: Inhibition of fibrotic process: αSMA in TGF-β1 treated primary human fibroblasts from IPF patients.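 On all read-outs here: controls were TGF-β1 stimulated wells with DMSO vehicle (positive) and cells given DMSO alone (negative), cultured in F12 medium with 1% fetal bovine serum.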 The format is cell-based. The note with it: Homo sapiens, Fibroblast; for EC50: 96 h, Table 8, LL29 fibroblasts from IPF patients, TGF-β1 20 ng/mL, 4 days, dose-response 10 μM to 0.94 nM; for inhibition at 10 µM: read-out: percent value in parentheses beside EC50 >10 μM.

The test system of experiment [2] is Tau phosphorylation at Ser396 (pSer396). As to the kind of experiment: Tau phosphorylation assay (pSer396 ELISA / western blot) in SH-SY5Y cells.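 Further: EC50 for reduction of Tau pSer396 in lysed cells, measured by colorimetric ELISA or chemiluminescent western blot, both using the same pSer396 antibody.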 Type of experiment: cell-based, human. As to conditions: Homo sapiens; SH-SY5Y cells, overnight (16-18 h) exposure; read-out: pSer396 Tau EC50. Background: ELISA stands for enzyme-linked immunosorbent assay.
The subject of another experiment is IL-6. As to the kind of experiment: IL-6 inhibition in LPS-stimulated human peripheral blood mononuclear cells (HTRF).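 On all read-outs here: IL-6 detected by HTRF with an XL665- and Cryptate-labelled anti-IL-6 antibody pair, samples run in duplicate, EC50 obtained from a four-parameter Levenberg-Marquardt curve fit.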 As to conditions: Homo sapiens, PBMC; for EC50: Table 9, huPBMCs, LPS 50 ng/mL, 22 hours, dose-response starting from 10 μM. The format is cell-based. A general note: TR-FRET usually uses a lanthanide donor and a delayed reading to cut background.

Experiment [3] deals with SW480 colon carcinoma cells. As to the kind of experiment: Cell viability assay (CellTiter-Glo). Type of experiment: cell-based, human. The note with it: Homo sapiens; for EC50: 96 h, SW480 cells, CellTiter-Glo, four days incubation. On the technique in general: In ATP-based viability assays light output follows the ATP content of the culture.
Experiment [4] addresses recombinant DYRK1A kinase (Homo sapiens (Human), UniProt Q13627). Nature of the experiment: DYRK1A kinase assay (Ser/Thr 18 peptide Z-lyte FRET).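 Further: Read-out is the coumarin to fluorescein emission ratio, referenced to unphosphorylated (0%) and phosphorylated (100%) Ser/Thr 18 peptide controls, values from dose-response curves by non-linear regression.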 Type of experiment: biochemical. As to conditions: 30 μM ATP, 1 h room temperature.
In experiment [5] the test system is Wnt pathway (Sp5-Luc reporter, TCF/LEF binding sites) in SW480 colon carcinoma cells. Nature of the experiment: Screening assay for Wnt activity: Sp5-Luc reporter gene assay.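 On all read-outs here: firefly luciferase luminescence read in stably transduced SW480 cells carrying the Sp5 promoter reporter with eight TCF/LEF sites, compounds given in 0.1% DMSO final.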 Type of experiment: cell-based, human. The note with it: Homo sapiens; for EC50: Sp5-Luc reporter, SW480 cells, 36 to 48 hours.
Method: The screening assay for Wnt activity is described as follows.
Following incubation, 15 μl of BriteLite Plus luminescence reagent (Perkin Elmer) was added to each well of the 384-well assay plates. The plates were placed on an orbital shaker for 2 min and then luminescence was quantified using the Envision (Perkin Elmer) plate reader.
A further experiment addresses recombinant GSK3β kinase (Homo sapiens (Human), UniProt P49841). Nature of the experiment: GSK3β kinase assay (Ser/Thr 09 peptide Z-lyte FRET).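 Further: kinase activity read as coumarin to fluorescein emission ratio, 11-point threefold dilutions from 10 µM to 0.0003 µM in duplicate, unphosphorylated and phosphorylated peptide as 0% and 100% controls.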 As to conditions: 46 μM ATP, 1 h room temperature. The format is biochemical.
The mark [6] stands for this setting: SW480, read-out: percent inhibition at 10 μM.

Some results are limits rather than exact numbers.

As a reminder, the EC50 is the concentration that produces a half-maximal response.

Sequence of recombinant GSK3β kinase (P49841 whole entry): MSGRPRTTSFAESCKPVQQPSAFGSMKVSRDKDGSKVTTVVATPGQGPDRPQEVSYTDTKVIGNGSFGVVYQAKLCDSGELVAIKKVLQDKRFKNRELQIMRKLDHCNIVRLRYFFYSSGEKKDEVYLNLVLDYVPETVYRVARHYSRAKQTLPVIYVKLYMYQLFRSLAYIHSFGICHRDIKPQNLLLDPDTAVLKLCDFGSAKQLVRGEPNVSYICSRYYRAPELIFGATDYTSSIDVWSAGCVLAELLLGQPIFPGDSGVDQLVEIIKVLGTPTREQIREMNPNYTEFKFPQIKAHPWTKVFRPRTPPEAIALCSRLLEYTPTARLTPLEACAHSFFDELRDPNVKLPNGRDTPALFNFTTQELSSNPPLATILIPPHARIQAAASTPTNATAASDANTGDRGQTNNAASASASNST
Method for IL-6: After 22 hour incubation, a mixture of anti-IL6 XL665 and anti-IL-6 Cryptate diluted in reconstitution buffer (Catalog #62IL6PEC, Cisbio Inc., Bedford, Mass.) was added to each well. […] All samples were processed in duplicate. […] EC50 was determined using software generated by Dotmatics Limited (Windhill Bishops Stortford Herts, UK) using the Levenberg-Marquardt 4 parameter fitting procedure with finite different gradients.

Take `COCCN1CCC(C(=O)Nc2cc3cc(-c4cncn4C)ccc3cn2)CC1` [Compound 547, 1-(2-Methoxyethyl)-N-(6-(1-methyl-1H-imidazol-5-yl)isoquinolin-3-yl) piperidine-4-carboxamide]: the EC50 in experiment [1] worked out at 160 nM; in experiment [2], 379 nM; in the experiment on IL-6, 1120 nM; in experiment [3] it was 931 nM; in experiment [4], 3.4 nM; in experiment [5], 2230 nM. Moreover, at recombinant GSK3β kinase, the concentration giving a half-maximal response (EC50) was 104 nM.
On to `CC(C)CN1CCC(C(=O)Nc2cc3cc(-c4cncn4C)ccc3cn2)CC1` [Compound 554, 1-Isobutyl-N-(6-(1-methyl-1H-imidazol-5-yl)isoquinolin-3-yl)piperidine-4-carboxamide], for which the EC50 in experiment [1] is 190 nM; in experiment [2] it was 95 nM; in the experiment on IL-6 it was 439 nM; in experiment [3], 366 nM; in experiment [4] it was 1.4 nM; in experiment [5], 272 nM. Further, the EC50 on recombinant GSK3β kinase stood at 38 nM.
Take `Cn1cncc1-c1ccc2cnc(NC(=O)C3CCN(S(C)(=O)=O)CC3)cc2c1` [Compound 561, N-(6-(1-Methyl-1H-imidazol-5-yl)isoquinolin-3-yl)-1-(methylsulfonyl) piperidine-4-carboxamide]: the EC50 in experiment [1] was 600 nM; in experiment [2] it was 395 nM; in the experiment on IL-6 it was 634 nM; in experiment [3], 924 nM; in experiment [4], 1.5 nM; in experiment [5], 1460 nM. For the same compound, at recombinant GSK3β kinase, the EC50 stood at 12 nM.
As for `CC(C(=O)Nc1cc2cc(-c3cncn3C)ccc2cn1)N1CCCC1` (centres unmarked) [Compound 579, N-(6-(1-Methyl-1H-imidazol-5-yl)isoquinolin-3-yl)-2-(pyrrolidin-1-yl) propanamide], the EC50 in experiment [1] was determined as 167 nM; in experiment [2], 62 nM; with IL-6 it was 1020 nM; in experiment [3] it was 954 nM; in experiment [4] it was 25 nM; in experiment [5], 899 nM. The EC50 at recombinant GSK3β kinase came to 48 nM.
With `CC(C)CN1CCC(C(=O)Nc2cc3cc(-c4cn[nH]c4)ccc3cn2)CC1` [Compound 643, N-(6-(1H-Pyrazol-4-yl)isoquinolin-3-yl)-1-isobutylpiperidine-4-carboxamide], the EC50 turned out to be 138 nM in experiment [1]; 49 nM in experiment [2]; 129 nM in the experiment with IL-6; 115 nM in experiment [3]; 1.8 nM in experiment [4]; 129 nM in experiment [5]. The EC50 on recombinant GSK3β kinase was determined as 49 nM.
Regarding `O=C(Nc1cc2cc(-c3cncs3)ccc2cn1)C1CC(F)(F)C1` [Compound 699, 3,3-Difluoro-N-(6-(thiazol-5-yl)isoquinolin-3-yl)cyclobutane-1-carboxamide], the half-maximal effective concentration (EC50) in experiment [1] turned out to be 234 nM; in experiment [2], 423 nM; with IL-6, 410 nM; in experiment [3], 834 nM; in experiment [4], 2.1 nM; in experiment [5] it was 541 nM. Also, the EC50 on recombinant GSK3β kinase turned out to be 24 nM.
In the case of `CN1CC2(CC(C(=O)Nc3cc4cc(-c5cncs5)ccc4cn3)C2)C1` [Compound 700, 2-Methyl-N-(6-(thiazol-5-yl)isoquinolin-3-yl)-2-azaspiro[3.3]heptane-6-carboxamide], the concentration for a half-maximal effect (EC50) in experiment [1] amounted to 275 nM; in experiment [2], 513 nM; in the experiment on IL-6, 380 nM; in experiment [3], 623 nM; in experiment [4], 2.2 nM; in experiment [5], 771 nM. The EC50 on recombinant GSK3β kinase came to 49 nM.
On to `O=C(Nc1cc2cc(-c3cncs3)ccc2cn1)C1(F)CCCCC1` [Compound 704, 1-Fluoro-N-(6-(thiazol-5-yl)isoquinolin-3-yl)cyclohexane-1-carboxamide], for which the half-maximal effective concentration (EC50) in experiment [1] is 4380 nM; in experiment [2], 10000 nM; in the experiment on IL-6, greater than 10000 nM; in experiment [3] it was greater than 10000 nM; in experiment [4], 8.2 nM; in experiment [5] it was greater than 10000 nM. For the same compound, the EC50 at recombinant GSK3β kinase turned out to be 1830 nM. Besides, the inhibition at 10 µM with IL-6 (read-out: percent value in parentheses beside EC50 >10 μM) is 4.8%; in experiment [3] (setting [6]) it was 18.1%; in experiment [5] (setting [6]), 10.2%.
`CN(C)[C@H]1CC[C@H](C(=O)Nc2cc3cc(-c4cncs4)ccc3cn2)CC1` [Compound 707, trans-4-(Dimethylamino)-N-(6-(thiazol-5-yl)isoquinolin-3-yl)cyclohexane-1-carboxamide]: the EC50 in experiment [1] was 4240 nM; in experiment [2], 449 nM; with IL-6, 446 nM; in experiment [3], 947 nM; in experiment [4] it was 0.9 nM; in experiment [5], 472 nM. Moreover, the EC50 at recombinant GSK3β kinase was 46 nM.
For the compound `O=C(Nc1cc2cc(-c3cncs3)ccc2cn1)[C@H]1CC[C@H](CN2CC(F)C2)CC1` [Compound 711, trans-4-((3-Fluoroazetidin-1-yl)methyl)-N-(6-(thiazol-5-yl)isoquinolin-3-yl)cyclohexane-1-carboxamide], the EC50 in experiment [1] was 540 nM; in experiment [2] it was 443 nM; with IL-6, 1080 nM; in experiment [3] it was 706 nM; in experiment [4], 1 nM; in experiment [5] it was 703 nM. Besides, the EC50 at recombinant GSK3β kinase worked out at 67 nM.
As to `O=C(Nc1cc2cc(-c3cncs3)ccc2cn1)C1CNC1` [Compound 713, N-(6-(Thiazol-5-yl)isoquinolin-3-yl)azetidine-3-carboxamide], the EC50 in experiment [1] is greater than 10000 nM; in experiment [2], 5000 nM; in the experiment with IL-6, 3630 nM; in experiment [3], 6980 nM; in experiment [4], 3.1 nM; in experiment [5], 9250 nM. The EC50 on recombinant GSK3β kinase worked out at 98 nM. Moreover, in experiment [1], the inhibition at 10 µM was 37.6%.
As to `CN1CCC(C(=O)Nc2cc3cc(-c4cncs4)ccc3cn2)CC1` [Compound 718, 1-Methyl-N-(6-(thiazol-5-yl)isoquinolin-3-yl)piperidine-4-carboxamide], the EC50 turned out to be 168 nM in experiment [1]; 294 nM in experiment [2]; 406 nM in the experiment with IL-6; 483 nM in experiment [3]; 1.3 nM in experiment [4]; 589 nM in experiment [5]. The EC50 at recombinant GSK3β kinase was 79 nM.
Take `O=C(Nc1cc2cc(-c3cncs3)ccc2cn1)C1CCN(C2COC2)CC1` [Compound 737, 1-(Oxetan-3-yl)-N-(6-(thiazol-5-yl)isoquinolin-3-yl)piperidine-4-carboxamide]: the concentration giving a half-maximal response (EC50) in experiment [1] was 80 nM; in experiment [2], 865 nM; in the experiment with IL-6, 1180 nM; in experiment [3], 4340 nM; in experiment [4], 1 nM; in experiment [5], 1290 nM. Further, the EC50 on recombinant GSK3β kinase came to 62 nM.
Regarding `O=C(Nc1cc2cc(-c3cncs3)ccc2cn1)C1CCN(C(=O)CN2CCCC2)CC1` [Compound 741, 1-(2-(Pyrrolidin-1-yl)acetyl)-N-(6-(thiazol-5-yl)isoquinolin-3-yl)piperidine-4-carboxamide], the EC50 in experiment [1] was determined as 175 nM; in experiment [2], 528 nM; with IL-6, 380 nM; in experiment [3] it was 462 nM; in experiment [4], 0.9 nM; in experiment [5], 444 nM. Moreover, the EC50 on recombinant GSK3β kinase came out at 107 nM.
Consider `CN1CCC(N2CCC(C(=O)Nc3cc4cc(-c5cncs5)ccc4cn3)CC2)CC1` [Compound 743, 1′-Methyl-N-(6-(thiazol-5-yl)isoquinolin-3-yl)-[1,4′-bipiperidine]-4-carboxamide], for which the EC50 in experiment [1] was 447 nM; in experiment [2] it was 432 nM; in the experiment on IL-6 it was 1130 nM; in experiment [3], 1540 nM; in experiment [4], 1.3 nM; in experiment [5], 9490 nM. Also, the EC50 on recombinant GSK3β kinase stood at 63 nM.
Consider `CC(C(=O)Nc1cc2cc(-c3cncs3)ccc2cn1)N1CCCC1` (centres unmarked) [Compound 758, 2-(Pyrrolidin-1-yl)-N-(6-(thiazol-5-yl)isoquinolin-3-yl)propanamide], for which the EC50 in experiment [1] was 265 nM; in experiment [2] it was 384 nM; with IL-6 it was 2870 nM; in experiment [3], 1340 nM; in experiment [4] it was 24.3 nM; in experiment [5], 1250 nM. On recombinant GSK3β kinase, the 50% effective concentration (EC50) is 50 nM.
For the compound `O=C(CN1CCCCC1)Nc1cc2cc(-c3cncs3)ccc2cn1` [Compound 760, 2-(Piperidin-1-yl)-N-(6-(thiazol-5-yl)isoquinolin-3-yl)acetamide], the EC50 in experiment [1] was 765 nM; in experiment [2] it was 1200 nM; in the experiment with IL-6 it was 1240 nM; in experiment [3], 3280 nM; in experiment [4], 3.8 nM; in experiment [5], 3970 nM. Moreover, the EC50 at recombinant GSK3β kinase worked out at 133 nM.
Consider `CN1CCN(CC(=O)Nc2cc3cc(-c4cncs4)ccc3cn2)CC1` [Compound 767, 2-(4-Methylpiperazin-1-yl)-N-(6-(thiazol-5-yl)isoquinolin-3-yl)acetamide], for which the EC50 in experiment [1] was greater than 10000 nM; in experiment [2], 1000 nM; in the experiment on IL-6 it was 3820 nM; in experiment [3] it was 9050 nM; in experiment [4], 4.3 nM; in experiment [5] it was 3220 nM. Moreover, the EC50 at recombinant GSK3β kinase came out at 157 nM. Also, the inhibition at 10 µM in experiment [1] worked out at 33.2%.
